Converted amounts (≈) assume the structure as drawn.
What was measured:
P. falciparum K1 = test: Malaria in vitro screening model (3H-hypoxanthine incorporation); assay type: cell-based, Plasmodium falciparum; conditions: for IC50: Plasmodium falciparum, K1
Method: […] P. falciparum K1 is used in this study. K1 (a clone originating from Thailand) is resistant to chloroquine and pyrimethamine. The strains are maintained in RPMI 1640 medium with 0.36 mM hypoxanthine, supplemented with 25 mM N 2-hydroxyethyipiperazine-N-2-ethane-sulphonic acid (HEPES), 25 mM NaHCO3, neomycin (100 U/mL) and 5 g/L of ALBUMAX® II (lipid-rich bovine serum albumin, GIBCO, Grand Island, N.Y., USA), together with 5% washed human A+ erythrocytes. All cultures and assays are conducted at 37° C. under an atmosphere of 4% CO2, 3% O2 and 93% N2. Cultures are kept in incubation chambers filled with the gas mixture. Subcultures are diluted to a parasitemia of between 0.1 and 0.5% and the medium is changed daily.
Antimalarial activity is assessed using an adaptation of the procedures described by Desjardins et al. (Antimicrob. Agents Chemother. 16:710-718, 1979), and Matile and Pink (In: Lefkovits, I. and Pernis, B. (Eds.), Immunological Methods Vol. IV, Academic Press, San Diego, pp. 221-234, 1990).
Stock drug solutions are prepared in 100% dimethylsulfoxide (DMSO) at 10 mg/mL, and heated or sonicated if necessary to dissolve the sample. After use, the stocks are kept at −20° C. For the assays, the compound is further diluted in serum-free culture medium and finally to the appropriate concentration in complete medium without hypoxanthine.
Assays are performed in sterile 96-well microtiter plates, each well containing 200 μl of parasite culture (0.15% parasitemia, 2.5% hematocrit) with or without serial drug solutions. Seven 2-fold dilutions are used, covering a range from […] to 0.078 μg/mL. For active compounds the highest concentration is lowered (e.g., to […]); for plant extracts the highest concentration is increased to 50 μg/mL. […] After 48 hours of incubation at 37° C., 0.5 μCi ^3H-hypoxanthine is added to each well. Cultures are incubated for a further 24 h before being harvested onto glass-fiber filters and washed with distilled water. The radioactivity is counted using a Betaplate liquid scintillation counter (Wallac, Zurich, Switzerland). The results are recorded as counts per minute per well at each drug concentration and expressed as percentage of the untreated controls. IC50 values are calculated from the sigmoidal inhibition curves using Microsoft EXCEL.

[1] = tested on: T. b. rhodesiense STIB 900; test: African sleeping sickness in vitro screening model (Alamar Blue); assay type: cell-based, Trypanosoma brucei rhodesiense; conditions: for IC50: Trypanosoma brucei
Method: Bloodstream from trypomastigotes of the strains (a) and (c) are maintained in Minimal Essential Medium (MEM) with Earle's salts supplemented according to Baltz, et al., (EMBO J. 4:1273-1277, 1985) with 25 mM N-2-hydroxyethylpiperazine-N′-2-ethane-sulphonic acid (HEPES), 1 g/L additional glucose, 1% MEM non-essential amino acids (100×), 0.2 mM 2-mercaptoethanol, 2 mM sodium pyruvate, 0.1 mM hypoxanthine and 15% heat-inactivated horse serum.
All cultures and assays are conducted at 37° C. under an atmosphere of 5% CO2 in air.
After use the stocks are kept at −20° C. For the assays, the compound is further diluted in serum-free culture medium and finally to the appropriate concentration in complete medium without hypoxanthine.
Assays are performed in 96-well microtiter plates, each well containing 100 μL of culture medium with 8×10^3 bloodstream forms with or without a serial drug dilution. The highest concentration for the test compounds is 90 μg/mL. Seven 3-fold drug dilutions are used, covering a range from 90 μg/mL to 0.123 μg/mL. Each drug is tested in duplicate. Active compounds are tested twice for confirmation. The final result is the mean of the four individual IC50 values. After 72 hrs of incubation, the plates are inspected under an inverted microscope to assure growth of the controls and sterile conditions.
(§1) Ten μL of Alamar Blue (12.5 mg resazurin dissolved in 100 mL distilled water) are now added to each well and the plates are incubated for another 2 hours. Then the plates are read with a Spectramax GEMINI XS microplate fluorometer (Molecular Devices Cooperation, Sunnyvale, Calif., USA) using an excitation wavelength of 536 nm and an emission wave length of 588 nm.
IC50 values are determined using the microplate reader software Softmax Pro (Molecular Devices Cooperation, Sunnyvale, Calif., USA).

[2] = tested on: Trypanosoma cruzi Tulahuen C2C4 strain; test: Chagas disease in vitro screening model (beta-galactosidase strain in L-6 cells); assay type: cell-based; conditions: for IC50: Trypanosoma cruzi, TULAHUEN, L6, read-out: T. cruzi IC50
Method: Trypanosoma cruzi Tulahuen C2C4 strain, containing the β-galactosidase (Lac Z) gene (Buckner et al., Antimicrob. Agents Chemother 40:2592-2597, 1996) is used for this study.
The infective amastigote and trypomastigote stages are cultivated in L-6 cells (a rat skeletal myoblast cell line) in RPMI 1640 medium supplemented with 2 mM L-glutamine and 10% heat-inactivated fetal bovine serum in 12.5 cm^2 tissue culture flasks. Amastigotes develop intracellularly, differentiate into trypomastigotes, and leave the host cell. These trypomastigotes infect new L-6 cells and are the stages used to initiate an infection in the assay. All cultures and assays are conducted at 37° C. under an atmosphere of 5% CO2 in air.
(§2) After use the stocks are kept at −20° C. For the assays, the compound is further diluted to the appropriate concentration using complete medium.
Assays are performed in sterile 96-well microtiter plates, each well containing 100 μl medium with 2×10^3 L-6 cells. After 24 hours, […] of a trypanosome suspension containing 5×10^3 trypomastigote bloodstream forms from culture are added to the wells. Forty-eight hours later, the medium is removed from the wells and replaced by […] fresh medium, with or without a serial drug dilution. At this point the L-6 cells should be infected with amastigotes and no free trypomastigotes should be in the medium. Seven 3-fold drug dilutions are used, covering a range from 90 μg/mL to 0.123 μg/mL. Each drug is tested in duplicate. Active compounds are tested twice for confirmation. After 96 hours of incubation the plates are inspected under an inverted microscope to assure growth of the controls and sterility.
Then the substrate CPRG/Nonidet (50 μl) is added to all wells. A colour reaction will become visible within 2-6 hours and can be read photometrically at 540 nm. Data are transferred into a graphics program (e.g., EXCEL), sigmoidal inhibition curves determined and IC50 values calculated.

[3] = tested on: Leishmania donovani strain MHOM/ET1671L82; test: Leishmaniasis in vitro screening model (axenic amastigotes, Alamar Blue); assay type: cell-based; conditions: for IC50: Leishmania donovani, read-out: L. donovani IC50
Method: The Leishmania donovani strain MHOM/ET1671L82 (obtained from Dr. S. Croft, London School of Hygiene and Tropical Medicine) is used. The strain is maintained in the Syrian Golden hamster. Amastigotes are collected from the spleen of an infected hamster. Amastigotes are grown in axenic culture at 37° C. in SM medium (Cunningham I., J. Protozoal. 24:325-329, 1977) at pH 5.4 supplemented with 10% heat-inactivated fetal bovine serum (FBS) under an atmosphere of 5% CO2 in air.
as §2
Assays are performed in 96-well flat-bottom microtiter plates (Costar, Corning Inc.), each well containing 100 μl of culture medium with 105 amastigotes from axenic culture with or without a serial drug dilution. Concentration of amastigotes is determined in a CASY cell analyzing system (Scharfe System, Reutlingen, Germany). Before the amastigotes are counted, the parasite culture is passed twice through a 22-gauge needle to break up clusters of amastigotes.
The highest concentration for the test compounds is 90 μg/mL. Seven 3-fold dilutions are used, covering a range from […]. Each drug is tested in duplicate. Active compounds are tested twice for confirmation. After 72 hours of incubation, the plates are inspected under an inverted microscope to assure growth of the controls and sterile conditions.
as §1, with “then” for “now”, “wave length” for “wavelength”
Data are analyzed using the microplate reader software Softmax Pro (Molecular Devices Cooperation, Sunnyvale, Calif., USA). Decrease of fluorescence (i.e. inhibition) is expressed as percentage of the fluorescence of control cultures and plotted against the drug concentrations. The IC50 value is calculated from the sigmoidal inhibition curve by the software program.

## O=C(O)CCCOc1cccnc1C(=O)OB(c1cccc(Cl)c1)c1cccc(Cl)c1 [Compound 75]
P. falciparum K1
  P. falciparum IC50: 0.494 µg/mL
[1]
  T. b. rhodesiense IC50: 31.1 µg/mL
[2]
  T. cruzi IC50: 8.9 µg/mL
[3]
  L. donovani IC50: 0.61 µg/mL

## Fc1cccc(B(Oc2cccc3cccnc23)c2ccc(Cl)c(C(F)(F)F)c2)c1 [Compound 115]
P. falciparum K1
  P. falciparum IC50: 3.077 µg/mL
[1]
  T. b. rhodesiense IC50: 0.465 µg/mL
[2]
  T. cruzi IC50: 3.6 µg/mL
[3]
  L. donovani IC50: 0.59 µg/mL

## Nc1cccc(C(=O)OB(c2ccc(Cl)cc2)c2ccc(Cl)cc2)n1 [Compound 50]
P. falciparum K1
  P. falciparum IC50: 0.6115 µg/mL
[1]
  T. b. rhodesiense IC50: 9.45 µg/mL
[2]
  T. cruzi IC50: 0.135 µg/mL
[3]
  L. donovani IC50: 0.23 µg/mL

## Cc1ccc(B(OC(=O)c2ncccc2O)c2ccc(C)c(Cl)c2)cc1Cl [Compound 69]
P. falciparum K1
  P. falciparum IC50: 2.449 µg/mL
[1]
  T. b. rhodesiense IC50: 16.5 µg/mL
[2]
  T. cruzi IC50: 3.35 µg/mL
[3]
  L. donovani IC50: 0.22 µg/mL

## C=CB(Oc1c(Cl)cc(Cl)c2ccc(C)nc12)c1cccnc1 [Compound 82]
P. falciparum K1
  P. falciparum IC50: 2.647 µg/mL
[1]
  T. b. rhodesiense IC50: 1.19 µg/mL
[2]
  T. cruzi IC50: 1.95 µg/mL
[3]
  L. donovani IC50: 0.22 µg/mL

## CN(C)Cc1ccc(B(Oc2cccc3cccnc23)c2cc(F)cc(C(F)(F)F)c2)cc1 [Compound 120]
P. falciparum K1
  P. falciparum IC50: 2.794 µg/mL
[1]
  T. b. rhodesiense IC50: 0.42 µg/mL
[2]
  T. cruzi IC50: 4.9 µg/mL
[3]
  L. donovani IC50: 0.44 µg/mL

## CSc1cccc(B(Oc2cccc3cccnc23)c2cccc(SC)c2)c1 [Compound 87]
P. falciparum K1
  P. falciparum IC50: 4.632 µg/mL
[1]
  T. b. rhodesiense IC50: 0.3 µg/mL
[2]
  T. cruzi IC50: 3.2 µg/mL
[3]
  L. donovani IC50: 0.39 µg/mL

## CC1(C)COC(c2cccc(B(Oc3cccc4cccnc34)c3cccc(F)c3)c2)=N1 [Compound 19, [3-(4,5-Dihydro-4,4-dimethyloxazol-2yl)phenyl](3-fluorophenyl)borinic acid quinolin-8-yl ester]
P. falciparum K1
  IC50: 1.89 µg/mL (≈ 4.45 µM)
[1]
  IC50: 0.32 µg/mL (≈ 0.754 µM)
[2]
  IC50: 1.33 µg/mL (≈ 3.15 µM)
[3]
  IC50: 0.66 µg/mL (≈ 1.56 µM)

## Fc1cccc(B(Oc2cccc3cccnc23)c2ccccc2Cl)c1 [Compound 30, (2-Chlorophenyl)(3-fluorophenyl)borinic acid quinolin-8-yl ester]
P. falciparum K1
  IC50: 1.74 µg/mL (≈ 4.81 µM)
[1]
  IC50: 0.305 µg/mL (≈ 0.843 µM)
[2]
  IC50: 0.82 µg/mL (≈ 2.27 µM)
[3]
  IC50: 0.58 µg/mL (≈ 1.6 µM)

## N#Cc1ccc(B(Oc2cccc3cccnc23)c2cc(F)ccc2F)cc1 [Compound 35, (4-Cyanophenyl)(2,5-difluorophenyl)borinic acid quinolin-8-yl ester]
P. falciparum K1
  IC50: 1.74 µg/mL (≈ 4.7 µM)
[1]
  IC50: 0.275 µg/mL (≈ 0.743 µM)
[2]
  IC50: 0.705 µg/mL (≈ 1.9 µM)
[3]
  IC50: 0.38 µg/mL (≈ 1.03 µM)

## Fc1cccc(C=CBOc2cccc3cccnc23)c1 [Compound 39, (3-Fluorophenyl)vinyl borinic acid quinolin-8-yl ester]
P. falciparum K1
  IC50: 122 µg/mL (≈ 440 µM)
[1]
  IC50: 0.201 µg/mL (≈ 0.725 µM)
[2]
  IC50: 1.41 µg/mL (≈ 5.09 µM)
[3]
  IC50: 0.34 µg/mL (≈ 1.23 µM)

## CC1(C)COC(c2cccc(B(Oc3c(Cl)cc(Cl)c4cccnc34)c3cccc(F)c3)c2)=N1 [Compound 81]
P. falciparum K1
  P. falciparum IC50: 3.355 µg/mL
[1]
  T. b. rhodesiense IC50: 1.9 µg/mL
[2]
  T. cruzi IC50: 4.2 µg/mL
[3]
  L. donovani IC50: 0.18 µg/mL

## Nc1cccc(C(=O)OB(c2ccc(Cl)cc2)c2ccc(Cl)cc2)n1 [Compound 131]
P. falciparum K1
  P. falciparum IC50: 0.6855 µg/mL
[1]
  T. b. rhodesiense IC50: 7.6 µg/mL
[2]
  T. cruzi IC50: 0.0535 µg/mL
[3]
  L. donovani IC50: 0.24 µg/mL

## Fc1cc(B(Oc2cccc3cccnc23)c2ccc(Cl)cc2)cc(C(F)(F)F)c1 [Compound 47, (4-Chlorophenyl)(3-fluoro-5-trifluoromethylphenyl)borinic acid quinolin-8-yl ester]
P. falciparum K1
  IC50: 2.07 µg/mL (≈ 4.82 µM)
[1]
  IC50: 0.5 µg/mL (≈ 1.16 µM)
[2]
  IC50: 1.7 µg/mL (≈ 3.96 µM)
[3]
  IC50: 0.51 µg/mL (≈ 1.19 µM)

## Fc1cc(B(Oc2cccc3cccnc23)c2ccc(Cl)c(F)c2)ccc1Cl [Compound 89]
P. falciparum K1
  P. falciparum IC50: 1.385 µg/mL
[1]
  T. b. rhodesiense IC50: 0.41 µg/mL
[2]
  T. cruzi IC50: 1.36 µg/mL
[3]
  L. donovani IC50: 0.38 µg/mL

## Fc1cccc(B(Oc2cccc3cccnc23)c2ccc(Cl)cc2F)c1 [Compound 43, (4-Chloro-2-fluorophenyl)(3-fluorophenyl)borinic acid quinolin-8-yl ester]
P. falciparum K1
  IC50: 1.83 µg/mL (≈ 4.82 µM)
[1]
  IC50: 0.4 µg/mL (≈ 1.05 µM)
[2]
  IC50: 0.825 µg/mL (≈ 2.17 µM)
[3]
  IC50: 0.02 µg/mL (≈ 0.0527 µM)

## COc1ccc(B(Oc2cccc3cccnc23)c2ccc(Cl)cc2)cc1F [Compound 41, (4-Chlorophenyl)(3-fluoro-4-methoxyphenyl)borinic acid quinolin-8-yl ester]
P. falciparum K1
  IC50: 1.63 µg/mL (≈ 4.16 µM)
[1]
  IC50: 0.38 µg/mL (≈ 0.97 µM)
[2]
  IC50: 0.935 µg/mL (≈ 2.39 µM)
[3]
  IC50: 0.29 µg/mL (≈ 0.74 µM)

— US20060014723A1, “Anti-parasitic uses of borinic acid complexes” (priority 2004, published 2006)
